Experiments:
Test in all cases: KINOMEscan competition binding
Details in all cases: compound 10.0 µM
[1] = target: CAMK2B (human) (UniProt Q13554)
[2] = target: WEE1 (human) (UniProt P30291)
[3] = target: CDK19 (human) (UniProt Q9BWU1)
[4] = target: YES1 (human) (UniProt P07947)
[5] = target: STK3 (human) (UniProt Q13188)
[6] = target: RPS6KA2 KD1 (human) (UniProt Q15349)
[7] = system: KIT (human), P10721 [A829P]
[8] = target: TLK1 (human) (UniProt Q9UKI8)
[9] = target: MAPK8 (human) (UniProt P45983)
[10] = target: DCLK1 (human) (UniProt O15075)
[11] = target: MAP2K6 (human) (UniProt P52564)
[12] = target: EIF2AK1 (human) (UniProt Q9BQI3)
[13] = target: EPHA1 (human) (UniProt P21709)
[14] = target: CSNK2A2 (human) (UniProt P19784)
CSNK2A2 (human), sequence (P19784 whole entry, looked up): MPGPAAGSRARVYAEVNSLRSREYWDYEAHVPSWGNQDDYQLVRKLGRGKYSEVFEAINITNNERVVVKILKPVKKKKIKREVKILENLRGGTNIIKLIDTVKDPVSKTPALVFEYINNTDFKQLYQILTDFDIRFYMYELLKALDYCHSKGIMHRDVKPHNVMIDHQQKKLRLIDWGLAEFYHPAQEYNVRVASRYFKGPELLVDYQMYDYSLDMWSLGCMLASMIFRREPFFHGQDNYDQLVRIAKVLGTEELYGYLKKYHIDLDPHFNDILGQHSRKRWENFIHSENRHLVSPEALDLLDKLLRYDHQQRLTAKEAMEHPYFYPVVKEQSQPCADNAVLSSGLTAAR

[15] = target: MAPK11 (human) (UniProt Q15759)
[16] = target: PTK2B (human) (UniProt Q14289)
[17] = target: PRKACA (human) (UniProt P17612)
[18] = target: ULK1 (human) (UniProt O75385)
[19] = target: CDC42BPG (human) (UniProt Q6DT37)
[20] = target: ALK (human) (UniProt Q9UM73)
[21] = target: HIPK3 (human) (UniProt Q9H422)
HIPK3 (human), sequence (Q9H422 whole entry, looked up): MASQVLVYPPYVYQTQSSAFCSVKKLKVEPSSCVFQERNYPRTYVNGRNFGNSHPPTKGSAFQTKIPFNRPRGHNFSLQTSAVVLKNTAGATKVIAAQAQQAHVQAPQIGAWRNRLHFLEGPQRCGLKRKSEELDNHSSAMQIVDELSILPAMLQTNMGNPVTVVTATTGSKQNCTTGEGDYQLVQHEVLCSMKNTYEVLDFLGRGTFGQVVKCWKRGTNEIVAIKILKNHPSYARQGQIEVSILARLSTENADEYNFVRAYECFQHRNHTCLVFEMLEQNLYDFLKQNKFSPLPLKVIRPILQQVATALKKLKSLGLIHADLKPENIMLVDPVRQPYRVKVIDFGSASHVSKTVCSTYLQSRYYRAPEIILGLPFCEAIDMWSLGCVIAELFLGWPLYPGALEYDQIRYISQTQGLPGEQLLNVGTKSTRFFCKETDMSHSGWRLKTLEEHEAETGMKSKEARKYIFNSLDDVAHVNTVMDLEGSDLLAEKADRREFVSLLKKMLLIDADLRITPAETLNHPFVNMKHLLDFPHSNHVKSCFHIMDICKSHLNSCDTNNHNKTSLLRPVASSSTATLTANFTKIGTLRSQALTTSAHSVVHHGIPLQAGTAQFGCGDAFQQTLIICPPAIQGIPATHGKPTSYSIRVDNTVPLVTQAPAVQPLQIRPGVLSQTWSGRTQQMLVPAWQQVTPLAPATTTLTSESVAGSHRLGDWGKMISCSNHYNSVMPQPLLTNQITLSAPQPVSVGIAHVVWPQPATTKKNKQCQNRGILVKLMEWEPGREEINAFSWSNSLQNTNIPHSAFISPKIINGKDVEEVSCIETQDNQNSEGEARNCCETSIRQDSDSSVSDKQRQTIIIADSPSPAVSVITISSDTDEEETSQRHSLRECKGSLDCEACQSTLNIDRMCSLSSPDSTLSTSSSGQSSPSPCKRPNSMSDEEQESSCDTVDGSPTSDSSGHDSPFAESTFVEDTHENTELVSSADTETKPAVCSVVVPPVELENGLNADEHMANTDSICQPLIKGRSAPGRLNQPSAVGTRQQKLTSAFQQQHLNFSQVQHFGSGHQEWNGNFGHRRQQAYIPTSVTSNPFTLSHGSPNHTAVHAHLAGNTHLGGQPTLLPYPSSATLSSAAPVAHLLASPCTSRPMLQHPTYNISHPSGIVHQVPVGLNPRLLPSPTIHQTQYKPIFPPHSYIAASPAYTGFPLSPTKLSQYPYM

[22] = target: AXL (human) (UniProt P30530)
[23] = target: CAMK2A (human) (UniProt Q9UQM7)
[24] = target: CDK7 (human) (UniProt P50613)
[25] = target: EPHA2 (human) (UniProt P29317)
[26] = target: SRMS (human) (UniProt Q9H3Y6)
[27] = target: EPHA5 (human) (UniProt P54756)
[28] = target: SRPK2 (human) (UniProt P78362)
[29] = target: ADCK4 (human) (UniProt Q96D53)
[30] = target: MAPK4 (human) (UniProt P31152)
[31] = target: ROCK1 (human) (UniProt Q13464)
[32] = target: BMPR1B (human) (UniProt O00238)
[33] = target: ACVR2A (human) (UniProt P27037)
[34] = target: SYK (human) (UniProt P43405)
[35] = target: PIM1 (human) (UniProt P11309)
PIM1 (human), sequence (P11309 whole entry, looked up): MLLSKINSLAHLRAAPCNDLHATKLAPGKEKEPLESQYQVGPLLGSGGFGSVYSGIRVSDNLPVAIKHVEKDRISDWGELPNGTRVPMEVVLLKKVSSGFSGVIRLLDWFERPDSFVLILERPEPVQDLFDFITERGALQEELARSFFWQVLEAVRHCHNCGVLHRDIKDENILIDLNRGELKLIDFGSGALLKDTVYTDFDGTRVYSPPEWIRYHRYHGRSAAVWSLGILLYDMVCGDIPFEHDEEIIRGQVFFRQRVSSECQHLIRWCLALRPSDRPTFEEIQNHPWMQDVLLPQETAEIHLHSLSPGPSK

[36] = target: RAF1 (human) (UniProt P04049)
[37] = target: KDR (human) (UniProt P35968)
[38] = target: CHEK2 (human) (UniProt O96017)
[39] = target: MAP4K5 (human) (UniProt Q9Y4K4)

CAMK2B (human), sequence (Q13554 whole entry, looked up): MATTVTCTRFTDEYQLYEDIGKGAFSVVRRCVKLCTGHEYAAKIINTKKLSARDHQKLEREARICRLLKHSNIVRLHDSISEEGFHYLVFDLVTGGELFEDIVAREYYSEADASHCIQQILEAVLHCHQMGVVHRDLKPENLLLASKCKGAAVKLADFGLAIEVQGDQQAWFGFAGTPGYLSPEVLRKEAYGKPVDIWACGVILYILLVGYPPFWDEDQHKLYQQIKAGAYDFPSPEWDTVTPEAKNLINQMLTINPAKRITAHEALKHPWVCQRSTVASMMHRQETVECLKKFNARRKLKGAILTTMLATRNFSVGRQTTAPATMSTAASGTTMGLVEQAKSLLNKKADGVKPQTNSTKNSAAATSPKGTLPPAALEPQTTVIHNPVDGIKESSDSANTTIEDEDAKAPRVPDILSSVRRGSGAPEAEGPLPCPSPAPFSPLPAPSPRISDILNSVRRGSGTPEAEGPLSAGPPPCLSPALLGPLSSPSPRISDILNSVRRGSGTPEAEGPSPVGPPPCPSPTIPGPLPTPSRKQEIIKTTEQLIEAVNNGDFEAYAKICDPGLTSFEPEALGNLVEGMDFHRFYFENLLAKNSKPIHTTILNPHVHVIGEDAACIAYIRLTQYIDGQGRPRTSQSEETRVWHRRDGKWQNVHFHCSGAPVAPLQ
TLK1 (human), sequence (Q9UKI8 whole entry, looked up): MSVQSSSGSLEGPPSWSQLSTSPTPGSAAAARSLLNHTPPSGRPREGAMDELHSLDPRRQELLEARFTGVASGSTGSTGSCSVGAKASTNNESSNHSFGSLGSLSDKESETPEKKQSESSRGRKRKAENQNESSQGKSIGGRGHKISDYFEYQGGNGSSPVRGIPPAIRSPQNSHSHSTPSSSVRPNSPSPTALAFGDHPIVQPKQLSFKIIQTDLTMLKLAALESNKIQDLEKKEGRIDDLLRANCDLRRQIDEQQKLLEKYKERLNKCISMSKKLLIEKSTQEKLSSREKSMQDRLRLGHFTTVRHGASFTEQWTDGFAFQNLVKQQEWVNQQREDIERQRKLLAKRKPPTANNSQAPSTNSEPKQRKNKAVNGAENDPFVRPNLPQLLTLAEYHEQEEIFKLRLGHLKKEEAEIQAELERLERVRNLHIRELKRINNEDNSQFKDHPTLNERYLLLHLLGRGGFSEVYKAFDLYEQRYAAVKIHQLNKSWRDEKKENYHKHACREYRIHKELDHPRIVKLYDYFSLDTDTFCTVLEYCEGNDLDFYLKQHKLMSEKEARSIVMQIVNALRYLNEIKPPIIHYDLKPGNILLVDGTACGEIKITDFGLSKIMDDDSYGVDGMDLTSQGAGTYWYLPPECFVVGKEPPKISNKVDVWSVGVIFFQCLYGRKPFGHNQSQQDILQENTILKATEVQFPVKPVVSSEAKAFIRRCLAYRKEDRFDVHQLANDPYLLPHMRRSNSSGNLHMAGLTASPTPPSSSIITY
RPS6KA2 KD1 (human), sequence (Q15349 whole entry, looked up): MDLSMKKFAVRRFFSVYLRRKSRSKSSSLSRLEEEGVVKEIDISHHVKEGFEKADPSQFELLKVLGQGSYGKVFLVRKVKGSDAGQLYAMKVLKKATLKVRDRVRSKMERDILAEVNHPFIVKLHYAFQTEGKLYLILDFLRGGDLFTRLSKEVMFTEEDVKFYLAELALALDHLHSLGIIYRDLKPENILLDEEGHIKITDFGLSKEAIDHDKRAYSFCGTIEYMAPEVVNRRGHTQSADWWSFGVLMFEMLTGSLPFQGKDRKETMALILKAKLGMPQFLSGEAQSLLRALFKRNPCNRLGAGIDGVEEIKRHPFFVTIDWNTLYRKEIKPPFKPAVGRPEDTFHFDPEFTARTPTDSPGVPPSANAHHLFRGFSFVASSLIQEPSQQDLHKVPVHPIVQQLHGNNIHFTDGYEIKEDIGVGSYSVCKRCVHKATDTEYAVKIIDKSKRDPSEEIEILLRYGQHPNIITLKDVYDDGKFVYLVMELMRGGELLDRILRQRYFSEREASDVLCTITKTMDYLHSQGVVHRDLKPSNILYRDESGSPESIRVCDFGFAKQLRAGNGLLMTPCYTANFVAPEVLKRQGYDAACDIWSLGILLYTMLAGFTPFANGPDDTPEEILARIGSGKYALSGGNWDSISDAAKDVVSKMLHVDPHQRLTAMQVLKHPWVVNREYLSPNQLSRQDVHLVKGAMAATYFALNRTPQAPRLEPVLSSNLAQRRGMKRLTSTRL
STK3 (human), sequence (Q13188 whole entry, looked up): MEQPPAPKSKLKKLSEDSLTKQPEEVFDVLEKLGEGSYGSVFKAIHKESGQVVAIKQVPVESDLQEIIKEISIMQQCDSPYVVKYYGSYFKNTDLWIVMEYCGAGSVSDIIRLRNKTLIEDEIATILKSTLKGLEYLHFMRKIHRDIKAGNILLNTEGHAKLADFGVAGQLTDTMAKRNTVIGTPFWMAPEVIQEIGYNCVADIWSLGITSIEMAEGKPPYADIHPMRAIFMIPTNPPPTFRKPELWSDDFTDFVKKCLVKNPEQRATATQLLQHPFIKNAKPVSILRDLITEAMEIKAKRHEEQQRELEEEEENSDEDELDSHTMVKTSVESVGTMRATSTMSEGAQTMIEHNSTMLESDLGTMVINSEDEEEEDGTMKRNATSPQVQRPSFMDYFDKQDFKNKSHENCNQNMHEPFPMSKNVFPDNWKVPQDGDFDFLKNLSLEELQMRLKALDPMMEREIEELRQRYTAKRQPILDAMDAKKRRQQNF
CDK19 (human), sequence (Q9BWU1 whole entry, looked up): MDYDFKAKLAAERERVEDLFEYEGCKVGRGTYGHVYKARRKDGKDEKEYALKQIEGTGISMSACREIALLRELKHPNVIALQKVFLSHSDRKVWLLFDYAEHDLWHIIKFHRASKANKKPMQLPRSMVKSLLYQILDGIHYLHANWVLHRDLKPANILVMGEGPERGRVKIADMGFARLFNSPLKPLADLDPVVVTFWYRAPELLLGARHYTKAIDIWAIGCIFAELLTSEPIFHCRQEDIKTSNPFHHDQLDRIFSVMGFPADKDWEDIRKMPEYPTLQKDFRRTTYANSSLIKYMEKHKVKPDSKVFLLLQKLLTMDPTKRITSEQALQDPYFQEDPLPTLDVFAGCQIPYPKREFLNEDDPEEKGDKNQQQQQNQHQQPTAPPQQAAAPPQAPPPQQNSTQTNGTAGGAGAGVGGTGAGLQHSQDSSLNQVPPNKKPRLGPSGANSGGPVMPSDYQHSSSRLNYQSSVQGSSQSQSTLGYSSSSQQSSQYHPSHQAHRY

SMILES: CC(=O)c1c(C)c2cnc(Nc3ccc(N4CCNCC4)cn3)nc2n(C2CCCC2)c1=O
- kinase still bound, per cent of control [1]: 4.4%
- kinase still bound, per cent of control [2]: 36%
- kinase still bound, per cent of control [3]: 100%
- kinase still bound, per cent of control [4]: 83%
- kinase still bound, per cent of control [5]: 59%
- kinase still bound, per cent of control [6]: 14%
- kinase still bound, per cent of control [7]: 32%
- kinase still bound, per cent of control [8]: 42%
- kinase still bound, per cent of control [9]: 1.6%
- kinase still bound, per cent of control [10]: 2.9%
- kinase still bound, per cent of control [11]: 45%
- kinase still bound, per cent of control [12]: 32%
- kinase still bound, per cent of control [13]: 100%
- kinase still bound, per cent of control [14]: 0.65%
- kinase still bound, per cent of control [15]: 96%
- kinase still bound, per cent of control [16]: 31%
- kinase still bound, per cent of control [17]: 100%
- kinase still bound, per cent of control [18]: 3.1%
- kinase still bound, per cent of control [19]: 94%
- kinase still bound, per cent of control [20]: 38%
- kinase still bound, per cent of control [21]: 2.1%
- kinase still bound, per cent of control [22]: 16%
- kinase still bound, per cent of control [23]: 3.2%
- kinase still bound, per cent of control [24]: 12%
- kinase still bound, per cent of control [25]: 95%
- kinase still bound, per cent of control [26]: 49%
- kinase still bound, per cent of control [27]: 98%
- kinase still bound, per cent of control [28]: 68%
- kinase still bound, per cent of control [29]: 53%
- kinase still bound, per cent of control [30]: 87%
- kinase still bound, per cent of control [31]: 30%
- kinase still bound, per cent of control [32]: 50%

SMILES: Cc1cn(-c2cc(C(=O)Nc3ccc(C)c(NC(=O)c4ccno4)c3)cc(C(F)(F)F)c2)cn1
- kinase still bound, per cent of control [1]: 100%
- kinase still bound, per cent of control [2]: 100%
- kinase still bound, per cent of control [3]: 100%
- kinase still bound, per cent of control [33]: 100%
- kinase still bound, per cent of control [4]: 13%
- kinase still bound, per cent of control [5]: 100%
- kinase still bound, per cent of control [6]: 100%
- kinase still bound, per cent of control [34]: 100%
- kinase still bound, per cent of control [8]: 100%
- kinase still bound, per cent of control [9]: 100%
- kinase still bound, per cent of control [10]: 100%
- kinase still bound, per cent of control [11]: 100%
- kinase still bound, per cent of control [13]: 100%
- kinase still bound, per cent of control [35]: 100%
- kinase still bound, per cent of control [14]: 100%
- kinase still bound, per cent of control [15]: 0%
- kinase still bound, per cent of control [16]: 100%
- kinase still bound, per cent of control [36]: 6%
- kinase still bound, per cent of control [17]: 100%
- kinase still bound, per cent of control [18]: 100%
- kinase still bound, per cent of control [19]: 100%
- kinase still bound, per cent of control [20]: 100%
- kinase still bound, per cent of control [21]: 100%
- kinase still bound, per cent of control [22]: 100%
- kinase still bound, per cent of control [23]: 100%
- kinase still bound, per cent of control [24]: 100%
- kinase still bound, per cent of control [37]: 100%
- kinase still bound, per cent of control [25]: 1.6%
- kinase still bound, per cent of control [38]: 100%
- kinase still bound, per cent of control [26]: 26%
- kinase still bound, per cent of control [27]: 17%
- kinase still bound, per cent of control [28]: 100%
- kinase still bound, per cent of control [29]: 100%
- kinase still bound, per cent of control [39]: 100%
- kinase still bound, per cent of control [30]: 100%
- kinase still bound, per cent of control [31]: 100%
- kinase still bound, per cent of control [32]: 100%

SMILES: CCOc1cc(N2CCC(O)CC2)ccc1Nc1ncc2c(n1)N(C)c1ccccc1C(=O)N2C
- kinase still bound, per cent of control [1]: 100%
- kinase still bound, per cent of control [2]: 100%
- kinase still bound, per cent of control [3]: 100%
- kinase still bound, per cent of control [33]: 100%
- kinase still bound, per cent of control [4]: 100%
- kinase still bound, per cent of control [5]: 100%
- kinase still bound, per cent of control [6]: 100%
- kinase still bound, per cent of control [34]: 100%
- kinase still bound, per cent of control [8]: 100%
- kinase still bound, per cent of control [9]: 100%
- kinase still bound, per cent of control [10]: 0.9%
- kinase still bound, per cent of control [11]: 100%
- kinase still bound, per cent of control [13]: 100%
- kinase still bound, per cent of control [35]: 100%
- kinase still bound, per cent of control [14]: 100%
- kinase still bound, per cent of control [15]: 100%
- kinase still bound, per cent of control [16]: 100%
- kinase still bound, per cent of control [36]: 100%
- kinase still bound, per cent of control [17]: 100%
- kinase still bound, per cent of control [18]: 100%
- kinase still bound, per cent of control [19]: 100%
- kinase still bound, per cent of control [20]: 29%
- kinase still bound, per cent of control [21]: 100%
- kinase still bound, per cent of control [22]: 100%
- kinase still bound, per cent of control [23]: 100%
- kinase still bound, per cent of control [24]: 100%
- kinase still bound, per cent of control [37]: 100%
- kinase still bound, per cent of control [25]: 100%
- kinase still bound, per cent of control [38]: 100%
- kinase still bound, per cent of control [26]: 100%
- kinase still bound, per cent of control [27]: 100%
- kinase still bound, per cent of control [28]: 100%
- kinase still bound, per cent of control [29]: 100%
- kinase still bound, per cent of control [39]: 100%
- kinase still bound, per cent of control [30]: 100%
- kinase still bound, per cent of control [31]: 100%
- kinase still bound, per cent of control [32]: 100%

Source: the kinase profiling compilation of Christmann-Franck et al. (2016)
